# Source: PubChem BioAssay AID330 (DTP/NCI, 2004)
# “And” between values parts separate entries of the source, which are not always exact repeats. Identical values can stand only once. Toxic doses and inconclusive results are not listed.
# Tested on: P388 leukemia ip, CD2F1 mice, survival T/C
# Experiment: NCI In Vivo Anticancer Drug Screen. Data for tumor model P388 Leukemia (intraperitoneal) in CD2F1 (CDF1) mice
# Conditions: endpoint: median survival time, higher = longer survival
# How it was run: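 Mice carrying the transplanted tumor received test compound or vehicle. Survival was recorded in each group, and the value is the treated-group measurement divided by that of the vehicle-treated control group.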
# [1] = dose: 50.0 mg/kg/injection, schedule: Q01DX005 (ip), vehicle: saline
# [2] = dose: 100.0 mg/kg/injection, schedule: Q01DX005 (ip), vehicle: saline
# [3] = dose: 200.0 mg/kg/injection, schedule: Q01DX005 (ip), vehicle: saline
# [4] = dose: 100.0 mg/kg/injection, schedule: Q01DX009 (ip), vehicle: saline with Tween-80
# [5] = dose: 200.0 mg/kg/injection, schedule: Q01DX009 (ip), vehicle: saline with Tween-80
# [6] = dose: 50.0 mg/kg/injection, schedule: Q01DX009 (ip), vehicle: saline
# [7] = dose: 60.0 mg/kg/injection, schedule: Q01DX005 (ip), vehicle: saline with Tween-80
# [8] = dose: 120.0 mg/kg/injection, schedule: Q01DX005 (ip), vehicle: saline with Tween-80
# [9] = dose: 240.0 mg/kg/injection, schedule: Q01DX005 (ip), vehicle: saline with Tween-80
# [10] = dose: 25.0 mg/kg/injection, schedule: Q01DX009 (ip), vehicle: saline
# [11] = dose: 100.0 mg/kg/injection, schedule: Q01DX009 (ip), vehicle: saline
# [12] = dose: 200.0 mg/kg/injection, schedule: Q01DX009 (ip), vehicle: saline
# [13] = dose: 50.0 mg/kg/injection, schedule: Q01DX005 (ip), vehicle: saline with Tween-80
# [14] = dose: 100.0 mg/kg/injection, schedule: Q01DX005 (ip), vehicle: saline with Tween-80
# [15] = dose: 200.0 mg/kg/injection, schedule: Q01DX005 (ip), vehicle: saline with Tween-80
# [16] = dose: 12.5 mg/kg/injection, schedule: Q01DX009 (ip), vehicle: saline
smiles,measurement,setting,value
OCCN(CCO)Cc1nc2cc(Cl)c(Cl)cc2[nH]1,T/C,[1],97 % of control
same,T/C,[2],112 % of control
same,T/C,[3],90 % of control
CCC[CH2][Sn]([CH2]CCC)([S]CC(=O)OC)[S]CC(=O)OC,T/C,"dose: 1.56 mg/kg/injection, schedule: Q01DX001 (ip), vehicle: Klucel (hydroxypropylcellulose) (HPC)",110 % of control
same,T/C,"dose: 3.12 mg/kg/injection, schedule: Q01DX001 (ip), vehicle: Klucel (hydroxypropylcellulose) (HPC)",111 % of control
same,T/C,"dose: 6.25 mg/kg/injection, schedule: Q01DX001 (ip), vehicle: Klucel (hydroxypropylcellulose) (HPC)",96 % of control
same,T/C,"dose: 12.5 mg/kg/injection, schedule: Q01DX001 (ip), vehicle: Klucel (hydroxypropylcellulose) (HPC)",106 % of control
same,T/C,"dose: 25.0 mg/kg/injection, schedule: Q01DX001 (ip), vehicle: Klucel (hydroxypropylcellulose) (HPC)",115 % of control
CC(=O)c1ccc2c(c1)[nH]c1ccccc12,T/C,[4],86 % of control
same,T/C,[5],90 % of control
same,T/C,"dose: 400.0 mg/kg/injection, schedule: Q01DX009 (ip), vehicle: saline with Tween-80",90 % of control
O=C(O)C1[N-]CCNC1C(=O)O.[O]=[V][OH] (stereo unspecified),T/C,[6],91 % of control
COc1cccc(C(=O)NCCNCCNC(=O)c2cccc(OC)c2OC)c1OC,T/C,[7],108 % of control
same,T/C,[8],104 % of control
same,T/C,[9],94 % of control
COC(=O)C1C(O)C(C)C(O)C(C)/C=C\C=C(C)C(=O)Nc2c(C)c(OC(C)=O)c3c(c2O)C(=O)C(C)=C2OCOC(=C23)C(C)=CC(C)(O)C(O)C(C)C1O (stereo unspecified),T/C,[10],107 % of control
same,T/C,[6],107 % of control
same,T/C,[11],107 % of control
same,T/C,[12],89 % of control
CNC(=O)OCc1c(COC(=O)NC)c(-c2ccc(Cl)cc2Cl)n2c1CCC2,T/C,"dose: 100.0 mg/kg/injection, schedule: Q01DX009 (ip), vehicle: distilled water + Tween-80",164 % of control
Cc1cc(C(=C2C=CC(=Nc3ccc(S(=O)(=O)O)cc3)C=C2)c2ccc(Nc3ccc(S(=O)(=O)O)cc3)cc2)cc(S(=O)(=O)O)c1N,T/C,"dose: 50.0 mg/kg/injection, schedule: Q01DX005 (ip), vehicle: suspension in saline",102 % of control
same,T/C,"dose: 100.0 mg/kg/injection, schedule: Q01DX005 (ip), vehicle: suspension in saline",99 % of control
same,T/C,"dose: 200.0 mg/kg/injection, schedule: Q01DX005 (ip), vehicle: suspension in saline",99 % of control
O=[N+]([O-])c1ccc(/C=[N+](\[O-])CCO)cc1,T/C,[4],99 % of control
same,T/C,[5],92 % of control
O=C1CSC(c2cccc(F)c2)N1c1nncs1 (stereo unspecified),T/C,[7],98 % of control
same,T/C,[8],105 % of control
same,T/C,[9],106 % of control
COc1cc2c(c3c1c(=S)c1ccccc1n3C)C=CC(C)(C)O2,T/C,"dose: 50.0 mg/kg/injection, schedule: Q01DX005 (ip), vehicle: Klucel (hydroxypropylcellulose) (HPC)",98 % of control
same,T/C,"dose: 100.0 mg/kg/injection, schedule: Q01DX005 (ip), vehicle: Klucel (hydroxypropylcellulose) (HPC)",98 % of control
same,T/C,"dose: 200.0 mg/kg/injection, schedule: Q01DX005 (ip), vehicle: Klucel (hydroxypropylcellulose) (HPC)",108 % of control
COC(OC)(OC)OC,T/C,[1],104 % of control
same,T/C,[2],108 % of control
same,T/C,[3],109 % of control
C=CCOc1cc2c(cc1C(C)c1ccc(OC)c(OC)c1)OCO2 (stereo unspecified),T/C,[13],99 % of control
same,T/C,[14],100 % of control
same,T/C,[15],95 % of control
CS(=O)(=O)Oc1cccn(S(C)(=O)=O)c1=O,T/C,[16],97 % of control
same,T/C,[10],92 % of control
same,T/C,[6],97 % of control
same,T/C,[11],97 % of control
same,T/C,[12],97 % of control
Cc1ccc(NSC(Cl)(Cl)Cl)cc1,T/C,[16],100 % of control
same,T/C,"dose: 12.5 mg/kg/injection, schedule: Q01DX009 (ip), vehicle: suspension in saline",100 % of control
same,T/C,[10],100 % of control
same,T/C,"dose: 25.0 mg/kg/injection, schedule: Q01DX009 (ip), vehicle: suspension in saline",100 % of control
same,T/C,[6],104 % of control and 123 % of control
same,T/C,"dose: 50.0 mg/kg/injection, schedule: Q01DX009 (ip), vehicle: suspension in saline",97 % of control
same,T/C,"dose: 100.0 mg/kg/injection, schedule: Q01DX009 (ip), vehicle: suspension in saline",87 % of control
COCC1=C(C)CC(C(C)(C)C(=O)OC)C1=O (stereo unspecified),T/C,"dose: 100.0 mg/kg/injection, schedule: Q01DX001 (ip), vehicle: saline",101 % of control
same,T/C,"dose: 200.0 mg/kg/injection, schedule: Q01DX001 (ip), vehicle: saline",101 % of control
same,T/C,"dose: 400.0 mg/kg/injection, schedule: Q01DX001 (ip), vehicle: saline",104 % of control
O=C(Nc1nc2cccnc2s1)C(F)(F)F,T/C,"dose: 50.0 mg/kg/injection, schedule: Q01DX009 (ip), vehicle: saline with Tween-80",100 % of control
same,T/C,[4],97 % of control
same,T/C,[5],94 % of control
CC1=C[P+](c2ccccc2)(c2ccccc2)C=C(c2ccccc2)O1,T/C,"dose: 3.12 mg/kg/injection, schedule: Q01DX005 (ip), vehicle: saline",105 % of control
same,T/C,"dose: 6.25 mg/kg/injection, schedule: Q01DX005 (ip), vehicle: saline",122 % of control and 123 % of control
same,T/C,"dose: 12.5 mg/kg/injection, schedule: Q01DX005 (ip), vehicle: saline",118 % of control
Cc1cnc(C)[nH]1,T/C,[13],102 % of control
same,T/C,[14],86 % of control
same,T/C,[15],102 % of control
Clc1ccc(CSSC(Cl)(Cl)Cl)cc1,T/C,"dose: 50.0 mg/kg/injection, schedule: Q01DX005 (ip), vehicle: acetone",102 % of control
same,T/C,"dose: 100.0 mg/kg/injection, schedule: Q01DX005 (ip), vehicle: acetone",105 % of control
same,T/C,"dose: 200.0 mg/kg/injection, schedule: Q01DX005 (ip), vehicle: acetone",107 % of control
CCCCCCCC(=O)OCC(=O)[C@]1(O)Cc2c(O)c3c(c(O)c2[C@@H](OC2CC(N)C(O)C(C)O2)C1)C(=O)c1c(OC)cccc1C3=O (stereo partly specified),T/C,"dose: 0.5 mg/kg/injection, schedule: Q01DX009 (ip), vehicle: saline sonified",159 % of control
same,T/C,"dose: 0.5 mg/kg/injection, schedule: Q01DX009 (ip), vehicle: saline with Tween-80",178 % of control
same,T/C,"dose: 0.5 mg/kg/injection, schedule: Q01DX009 (ip), vehicle: water",158 % of control
same,T/C,"dose: 1.0 mg/kg/injection, schedule: Q01DX009 (ip), vehicle: saline sonified",190 % of control
same,T/C,"dose: 1.0 mg/kg/injection, schedule: Q01DX009 (ip), vehicle: saline with Tween-80",185 % of control
same,T/C,"dose: 1.0 mg/kg/injection, schedule: Q01DX009 (ip), vehicle: water",181 % of control
same,T/C,"dose: 1.73 mg/kg/injection, schedule: Q04DX003 (ip), vehicle: water",172 % of control
same,T/C,"dose: 2.0 mg/kg/injection, schedule: Q01DX009 (ip), vehicle: saline sonified",231 % of control
same,T/C,"dose: 2.0 mg/kg/injection, schedule: Q01DX009 (ip), vehicle: water",247 % of control
same,T/C,"dose: 2.88 mg/kg/injection, schedule: Q04DX003 (ip), vehicle: water",198 % of control
same,T/C,"dose: 4.0 mg/kg/injection, schedule: Q01DX009 (ip), vehicle: saline with Tween-80",209 % of control and 92 % of control
same,T/C,"dose: 4.0 mg/kg/injection, schedule: Q01DX009 (ip), vehicle: water",104 % of control
same,T/C,"dose: 4.8 mg/kg/injection, schedule: Q04DX003 (ip), vehicle: water",202 % of control
same,T/C,"dose: 8.0 mg/kg/injection, schedule: Q01DX009 (ip), vehicle: saline with Tween-80",114 % of control
same,T/C,"dose: 8.0 mg/kg/injection, schedule: Q04DX003 (ip), vehicle: water",190 % of control
same,T/C,"dose: 13.3 mg/kg/injection, schedule: Q04DX003 (ip), vehicle: water",111 % of control
Cc1nnc2c3nccnc3c(Cl)nn12,T/C,"dose: 15.0 mg/kg/injection, schedule: Q01DX005 (ip), vehicle: saline with Tween-80",105 % of control
same,T/C,"dose: 30.0 mg/kg/injection, schedule: Q01DX005 (ip), vehicle: saline with Tween-80",112 % of control
same,T/C,[7],102 % of control and 105 % of control
CCOC(=O)c1cc(Cl)cc2c(=O)c3c([nH]c12)C(=O)c1c([nH]c2c(C(=O)OCC)cc(Cl)cc2c1=O)C3=O,T/C,"dose: 50.0 mg/kg/injection, schedule: Q01DX009 (ip), vehicle: Klucel (hydroxypropylcellulose) (HPC)",99 % of control
same,T/C,"dose: 100.0 mg/kg/injection, schedule: Q01DX009 (ip), vehicle: Klucel (hydroxypropylcellulose) (HPC)",105 % of control
same,T/C,"dose: 200.0 mg/kg/injection, schedule: Q01DX009 (ip), vehicle: Klucel (hydroxypropylcellulose) (HPC)",98 % of control
